The values below come from patent US9969726B2, “Metabotropic glutamate receptor negative allosteric modulators (NAMS) and uses thereof” (Sanford-Burnham Medical Research Institute, priority 2014, dated 2018).

Like-named read-outs stand apart in the source and are kept apart here.

One series has as its target rat mGlu2 receptor (Rattus norvegicus (Rat), UniProt P31421). Briefly: mGlu2 in vitro GIRK thallium flux assay. It counts as cell-based. Particulars: NAM, EC80 glutamate, HEK-293 GIRK cells. The essentials:
(§1)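 Cells expressing rat mGlu2 or mGlu3 with GIRK, plated overnight at 37 °C. Test compounds (0.3% DMSO, 10-point 1:3 series) preincubated 2.5 or 60 min, then thallium buffer plus EC80 glutamate added. Fluorescence slope 5–15 s after addition, normalised to vehicle and maximal agonist, fitted by four-parameter logistic.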

The nature of series [1]: Microsomal stability in vitro assay. It counts as in vitro ADME. The conditions noted are these: rat liver microsomes 1 mg/mL, 4 μM compound, 2 mM NADPH. As for the experimental part:
Pooled rat liver microsomes (BD Biosciences, #452701) were preincubated with test compounds at 37.5° C. for 5 min in the absence of NADPH. The reaction was initiated by addition of NADPH and incubated under the same conditions. The final incubation concentrations were 4 μM test compound, 2 mM NADPH, and 1 mg/mL (total protein) liver microsomes in phosphate-buffered saline (PBS) at pH 7.4. One aliquot (100 μL) of the incubation mixture was withdrawn at 15 min time points and combined immediately with 100 μL of ACN/MeOH. After mixing, the sample was centrifuged at approximately 13000 rpm for 12 min. The supernatant was filtered and transferred into an autosampler vial and the amount of test compound was quantified using a Shimadzu LCMS 2010EV mass spectrometer. The change of the AUC (area under the curve) of the parent compound as a function of time was used as a measure of microsomal stability. Test compounds were run in duplicate with a positive control.
(Microsomes from liver hold many membrane-bound enzymes, among them those of drug oxidation.)

The nature of series [2]: Plasma stability in vitro assay. In kind it is in vitro ADME. The conditions noted are these: rat plasma, 100 μM, 37.5° C. As for the experimental part: A 20 μL aliquot of a 10 mM solution in DMSO of the test compound was added to 2.0 mL of heparinized rat plasma (Lampire, P1-150N) to obtain a 100 μM final solution. The mixture was incubated for 1 h at 37.5° C. Aliquots of 100 μL were taken at 15 min intervals and diluted with 100 μL of MeOH/ACN. After mixing, the sample was centrifuged at approximately 13000 rpm for 12 min. The supernatant was filtered and transferred into an autosampler vial and the amount of test compound was quantified using the Shimadzu LCMS-2010EV system. The change of the AUC of the parent compound in function of time was used as a measure of plasma stability.

For a further series, the target named is rat mGlu3 receptor (Rattus norvegicus (Rat), UniProt P31422). Put plainly: mGlu3 in vitro GIRK thallium flux assay. In kind it is cell-based. Particulars: NAM; 2.5 min compound incubation; EC80 glutamate; HEK-293 GIRK cells. The essentials:
as §1

Setting [3] is: 2.5 min compound incubation, read-out: mGlu2 EC50 (μM) (2.5 min).
[4] abbreviates: read-out: mGlu2 EC50 (μM) (60 min), 60 min compound incubation.
The mark [5] stands for this setting: mGlu2 EC50 (μM) (60 min), 60 min compound incubation.

Chain of rat mGlu2 receptor (P31421 19-872): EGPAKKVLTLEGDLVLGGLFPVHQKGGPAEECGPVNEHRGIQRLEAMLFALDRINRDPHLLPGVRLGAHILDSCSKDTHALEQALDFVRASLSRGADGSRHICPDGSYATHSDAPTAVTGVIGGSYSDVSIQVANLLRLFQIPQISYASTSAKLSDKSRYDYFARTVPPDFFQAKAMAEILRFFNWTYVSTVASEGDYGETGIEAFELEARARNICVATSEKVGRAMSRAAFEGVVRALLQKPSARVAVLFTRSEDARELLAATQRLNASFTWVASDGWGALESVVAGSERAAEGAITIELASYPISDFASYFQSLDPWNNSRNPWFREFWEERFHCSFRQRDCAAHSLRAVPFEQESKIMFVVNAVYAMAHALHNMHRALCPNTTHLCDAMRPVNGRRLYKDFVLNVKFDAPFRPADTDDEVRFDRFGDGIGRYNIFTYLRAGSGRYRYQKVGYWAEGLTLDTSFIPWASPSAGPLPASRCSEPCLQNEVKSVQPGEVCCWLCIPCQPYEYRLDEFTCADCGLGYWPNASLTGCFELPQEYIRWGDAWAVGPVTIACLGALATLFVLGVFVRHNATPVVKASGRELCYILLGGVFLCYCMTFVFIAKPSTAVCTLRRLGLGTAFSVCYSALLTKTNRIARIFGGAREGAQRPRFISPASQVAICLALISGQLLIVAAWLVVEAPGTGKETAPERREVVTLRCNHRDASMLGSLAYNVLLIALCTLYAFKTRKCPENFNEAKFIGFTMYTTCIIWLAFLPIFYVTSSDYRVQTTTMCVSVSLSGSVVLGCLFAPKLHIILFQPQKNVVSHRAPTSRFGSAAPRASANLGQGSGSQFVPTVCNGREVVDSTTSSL
Chain of rat mGlu3 receptor (P31422 23-879): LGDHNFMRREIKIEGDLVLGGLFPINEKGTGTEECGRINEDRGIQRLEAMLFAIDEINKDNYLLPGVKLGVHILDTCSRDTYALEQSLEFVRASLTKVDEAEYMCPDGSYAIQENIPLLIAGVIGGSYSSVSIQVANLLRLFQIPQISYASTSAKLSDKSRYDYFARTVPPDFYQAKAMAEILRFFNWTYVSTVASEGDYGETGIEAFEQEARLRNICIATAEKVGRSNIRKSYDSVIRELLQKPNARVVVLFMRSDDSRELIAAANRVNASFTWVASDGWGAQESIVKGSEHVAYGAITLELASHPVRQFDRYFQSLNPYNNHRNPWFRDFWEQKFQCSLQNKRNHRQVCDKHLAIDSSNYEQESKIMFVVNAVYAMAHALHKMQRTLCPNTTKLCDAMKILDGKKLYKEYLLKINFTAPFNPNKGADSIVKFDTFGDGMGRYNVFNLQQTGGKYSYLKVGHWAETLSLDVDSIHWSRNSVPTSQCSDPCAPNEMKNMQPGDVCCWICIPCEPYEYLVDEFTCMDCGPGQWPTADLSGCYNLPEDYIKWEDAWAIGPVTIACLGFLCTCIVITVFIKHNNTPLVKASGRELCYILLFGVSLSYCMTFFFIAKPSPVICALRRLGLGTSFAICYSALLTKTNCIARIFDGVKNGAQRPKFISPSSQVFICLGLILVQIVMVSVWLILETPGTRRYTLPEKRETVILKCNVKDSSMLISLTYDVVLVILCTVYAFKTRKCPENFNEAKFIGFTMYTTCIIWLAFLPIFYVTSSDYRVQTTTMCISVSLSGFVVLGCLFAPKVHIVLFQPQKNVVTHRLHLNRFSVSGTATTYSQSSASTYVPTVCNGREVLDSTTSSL

The term EC50 denotes the concentration that produces a half-maximal response. As to `O=C(O)c1cc(-c2cccc(-c3nc(-c4ccccc4)cc(C(F)(F)F)n3)c2)ccc1F` [Example 86, 4-Fluoro-3′-(4-phenyl-6-(trifluoromethyl)pyrimidin-2-yl)biphenyl-3-carboxylic Acid], the EC50 was 0.8 µM on rat mGlu2 receptor (setting [3]), 0.04 µM on rat mGlu2 receptor (setting [4]) and 0.92 µM on rat mGlu3 receptor. The “Microsomal Stability, Percent Remaining @ 1 hour” value in series [1] is recorded as 100%. Besides, in series [2], the “Plasma Stability, Percent Remaining @ 1 hour” value was 100%.
Take `Cc1cc2c(cc1C(F)(F)F)NC(=O)CC(c1cccc(Sc3ncccn3)c1)=N2` [Example 136, 7-Methyl-4-(3-(pyrimidin-2-ylthio)phenyl)-8-(trifluoromethyl)-1H-benzo[b][1,4]diazepin-2(3H)-one]: the EC50 worked out at 0.88 µM at rat mGlu2 receptor (setting [3]), 0.04 µM on rat mGlu2 receptor (setting [4]) and 0.81 µM at rat mGlu3 receptor. Further, the “Microsomal Stability, Percent Remaining @ 1 hour” value in series [1] came to 90%. Moreover, the “Plasma Stability, Percent Remaining @ 1 hour” value in series [2] is on record as 99%.
Take `O=C(O)c1cc(-c2cccc(-c3csc(-c4ccccc4)n3)c2)ccc1F` [Example 1, 4-Fluoro-3′-(2-phenylthiazol-4-yl)biphenyl-3-carboxylic Acid]: the half-maximal effective concentration (EC50) came out at 0.33 µM on rat mGlu2 receptor (setting [3]), 0.48 µM on rat mGlu2 receptor (setting [5]) and 1.21 µM at rat mGlu3 receptor. Further, in series [1], the “Microsomal Stability, Percent Remaining @ 1 hour” value is given as 3%. The “Plasma Stability, Percent Remaining @ 1 hour” value in series [2] was determined as 93%.
For the compound `O=C(O)c1ccc(F)c(-c2cccc(-c3nc(-c4ccoc4)cc(C(F)(F)F)n3)c2)c1` [Example 114, 6-Fluoro-3′-(4-(furan-3-yl)-6-(trifluoromethyl)pyrimidin-2-yl)biphenyl-3-carboxylic Acid], the EC50 is 0.4 µM on rat mGlu2 receptor (setting [3]) and 1.36 µM on rat mGlu3 receptor. In addition, the “Microsomal Stability, Percent Remaining @ 1 hour” value in series [1] was found to be 66%. Moreover, the “Plasma Stability, Percent Remaining @ 1 hour” value in series [2] was 93%.
On to `O=C(O)c1cc(F)cc(-c2cccc(-c3nc(-c4ccc(C(F)(F)F)nc4)cc(C(F)(F)F)n3)c2)c1` [Example 76, 5-Fluoro-3′-(4-(trifluoromethyl)-6-(6-(trifluoromethyl)pyridin-3-yl)pyrimidin-2-yl)biphenyl-3-carboxylic Acid], for which the values for the EC50 on rat mGlu2 receptor (setting [3]), on rat mGlu2 receptor (setting [4]) and at rat mGlu3 receptor were 1.53 µM, 0.09 µM and 1.61 µM, respectively. In addition, the “Microsomal Stability, Percent Remaining @ 1 hour” value in series [1] stood at 95%. Also, in series [2], the “Plasma Stability, Percent Remaining @ 1 hour” value was 100%.
The matching figures for `N#Cc1cc(C2=Nc3ccc(C(F)(F)F)cc3NC(=O)C2)ccn1` [Example 184, 4-(2-Oxo-8-(trifluoromethyl)-2,3-dihydro-H-benzo[b][1,4]diazepin-4-yl)picolinonitrile]: 0.49 µM, 0.07 µM, 0.41 µM, 97% and 100%.
As to `Cc1cc2c(cc1C(F)(F)F)NC(=O)CC(c1cccc(Oc3cc(F)cc(F)c3)c1)=N2` [Example 146, 4-(3-(3,5-difluorophenoxy)phenyl)-7-methyl-8-(trifluoromethyl)-1H-benzo[b][1,4]diazepin-2(3H)-one], the EC50 at rat mGlu2 receptor (setting [3]), on rat mGlu2 receptor (setting [4]) and at rat mGlu3 receptor was greater than 10 µM each time.
`O=C(O)c1cc(-c2cccc(-c3nsc(-c4ccoc4)n3)c2)ccc1F` [Example 42, 4-Fluoro-3′-(5-(furan-3-yl)-1,2,4-thiadiazol-3-yl)biphenyl-3-carboxylic Acid]: the figures for the EC50 at rat mGlu2 receptor (setting [3]), on rat mGlu2 receptor (setting [5]) and at rat mGlu3 receptor were 3.63 µM, 3.71 µM and greater than 10 µM, respectively.
On to `O=C1CC(c2ccnc(Br)c2)=Nc2ccc(-c3ccc(C(F)(F)F)cc3C(F)(F)F)cc2N1` [Example 194, 8-(2,4-Bis(trifluoromethyl)phenyl)-4-(2-bromopyridin-4-yl)-1,3-dihydro-2H-benzo[b][1,4]diazepin-2-one], for which the EC50 on rat mGlu2 receptor (setting [3]) is greater than 10 µM; on rat mGlu2 receptor (setting [4]), 3.47 µM; on rat mGlu3 receptor, greater than 10 µM.
For the compound `O=C(O)c1cccc(-c2cccc(-c3csc(-c4cccc(C(=O)O)c4)n3)c2)c1` [Example 33, 3-{4-[3-(3-Carboxyphenyl)phenyl]-1,3-thiazol-2-yl}benzoic acid], the EC50 at rat mGlu2 receptor (setting [3]) is 4.83 µM; on rat mGlu2 receptor (setting [5]), greater than 10 µM; on rat mGlu3 receptor it was greater than 10 µM.
In the case of `O=C(NO)c1cc(-c2cccc(-c3nc(-c4ccoc4)cc(C(F)(F)F)n3)c2)ccc1F` [Example 131, 4-Fluoro-3′-(4-(furan-3-yl)-6-(trifluoromethyl)pyrimidin-2-yl)-N-hydroxy-[1,1′-biphenyl]-3-carboxamide], the figures for the EC50 on rat mGlu2 receptor (setting [3]), at rat mGlu2 receptor (setting [4]) and at rat mGlu3 receptor were greater than 10 µM, 3.36 µM and greater than 10 µM, respectively.
As to `O=C1CC(c2ccnc(Cl)c2)=Nc2ccc(-c3ccc(Br)nc3)cc2N1` [Example 199, 8-(6-Bromopyridin-3-yl)-4-(2-chloropyridin-4-yl)-1,3-dihydro-2H-benzo[b][1,4]diazepin-2-one], the EC50 was 1.7 µM on rat mGlu2 receptor (setting [3]), 4.27 µM at rat mGlu2 receptor (setting [4]) and 1.82 µM at rat mGlu3 receptor.
With `O=C(O)c1cccc(-c2cccc(-c3cn(-c4ccccc4)c(-c4ccccc4)n3)c2)c1` [Example 67, 3′-(1,2-Diphenyl-1H-imidazol-4-yl)-[1,1′-biphenyl]-3-carboxylic Acid], the EC50 on rat mGlu2 receptor (setting [3]), at rat mGlu2 receptor (setting [4]) and at rat mGlu3 receptor was greater than 10 µM in each case.
As for `O=C(O)c1cc(-c2ccc(-c3csc(-c4ccccc4)n3)s2)ccc1F` [Example 10, 2-Fluoro-5-(5-(2-phenylthiazol-4-yl)thiophen-2-yl)benzoic acid], the EC50 on rat mGlu2 receptor (setting [3]), on rat mGlu2 receptor (setting [5]) and at rat mGlu3 receptor was greater than 10 µM in each case.
Regarding `COc1ccc(-c2cc(C(F)(F)F)nc(-c3cccc(-c4ccc(F)c(C(=O)O)c4)c3)n2)cn1` [Example 120, 4-Fluoro-3′-(4-(6-methoxypyridin-3-yl)-6-(trifluoromethyl)pyrimidin-2-yl)-[1,1′-biphenyl]-3-carboxylic Acid], the EC50 on rat mGlu2 receptor (setting [3]) came to 1.43 µM; on rat mGlu2 receptor (setting [4]), 0.35 µM; on rat mGlu3 receptor, 1.41 µM.
For the compound `CSc1ccc(-c2cc(C(F)(F)F)nc(-c3cccc(-c4ccc(F)c(C(=O)O)c4)c3)n2)cc1` [Example 103, 4-Fluoro-3′-(4-(4-(methylthio)phenyl)-6-(trifluoromethyl)pyrimidin-2-yl)biphenyl-3-carboxylic Acid], the figures for the EC50 on rat mGlu2 receptor (setting [3]), on rat mGlu2 receptor (setting [4]) and on rat mGlu3 receptor were 4.69 µM, 0.99 µM and 4.54 µM, respectively.
Regarding `O=C(O)c1cc(-c2cccc(-c3nccc(-c4ccoc4)n3)c2)ccc1F` [Example 118, 4-Fluoro-3′-(4-(furan-3-yl)pyrimidin-2-yl)biphenyl-3-carboxylic Acid], the values for the EC50 on rat mGlu2 receptor (setting [3]), at rat mGlu2 receptor (setting [4]) and on rat mGlu3 receptor were 0.26 µM, 1.01 µM and 1.38 µM, respectively.
The matching figures for `Cc1cccc(-c2cc(C(F)(F)F)nc(-c3cccc(-c4ccc(F)c(C(=O)O)c4)c3)n2)c1` [Example 92, 4-Fluoro-3′-(4-m-tolyl-6-(trifluoromethyl)pyrimidin-2-yl)biphenyl-3-carboxylic Acid]: 2.79 µM, 0.4 µM and 3.37 µM.
Turning to `CONC(=O)c1cc(-c2cccc(-c3nc(-c4ccoc4)cc(C(F)(F)F)n3)c2)ccc1F` [Example 132, 4-Fluoro-3′-(4-(furan-3-yl)-6-(trifluoromethyl)pyrimidin-2-yl)-N-methoxy-[1,1′-biphenyl]-3-carboxamide], the 50% effective concentration (EC50) on rat mGlu2 receptor (setting [3]) is greater than 10 µM; on rat mGlu2 receptor (setting [4]) it was 7.1 µM; on rat mGlu3 receptor it was 5.26 µM.
The matching figures for `Cc1cc(-c2cccc(C3CC(=O)Nc4cc(NC(=O)Oc5ccccc5)ccc4N3)c2)cc(C)n1` (centres unmarked) [Example 163, Phenyl (2-(3-(2,6-dimethylpyridin-4-yl)phenyl)-4-oxo-2,3,4,5-tetrahydro-1H-benzo[b][1,4]diazepin-7-yl)carbamate]: greater than 10 µM, greater than 10 µM and greater than 10 µM.
Take `O=C(O)c1cccc(-c2cccc(-c3csc(/C=C/c4ccccc4)n3)c2)c1` [Example 36, (E)-3′-(2-Styrylthiazol-4-yl)biphenyl-3-carboxylic Acid]: the EC50 at rat mGlu2 receptor (setting [3]) was 3.47 µM; at rat mGlu2 receptor (setting [5]) it was greater than 10 µM; on rat mGlu3 receptor, greater than 10 µM.
